Data: US10499645B2, “Nematicidal aqueous suspension concentrate compositions” (Monsanto Technology LLC, priority 2012, dated 2019)

Experiments:
Type in all cases: physicochemical
[1] = Non-competitive slurry experiments (XRD); settings: ambient temperature
Experimental: In addition to the solvent recrystallization experiments, non-competitive slurry experiments were performed to search for new solid-state forms of 3-phenyl-5-(thiophen-2-yl)-1,2,4-oxadiazole. These experiments rely on solubility differences of different polymorphic forms (if the compound exists in different polymorphic forms).
Essentially, when a solid is mixed with solvent to create slurry, a saturated solution eventually results. The solution is saturated with respect to the polymorphic form dissolved. […] In addition, noncompetitive slurry experiments are often useful in identifying solvents that form solvates with the compound.
The slurry experiments were performed by exposing excess supplied material to solvents and agitating the resulting suspensions for several days at ambient temperature. The solids were filtered using a WHATMAN Grade 1 apparatus (11 μm pore size) and analyzed by XRD to determine the resulting form(s). To avoid possible desolvation or physical change after isolation, the samples were not dried before X-ray analysis.

[2] = Grinding analysis (ball mill, XRD); settings: ball mill 2 minutes at 4800 oscillations per minute
Experimental: Batches of 3-phenyl-5-(thiophen-2-yl)-1,2,4-oxadiazole polymorphic Forms I and II were ground using a CRESCENT WIG-L-BUG ball mill for 2 minutes at 4800 oscillations per minute (3.2 m/s) in two separate experiments. […] The Form II used in this experiment was obtained by recrystallization from the melt of Form I, as described in Example 14, above, […]

[3] = Storage stability of polymorphs (XRD)
[4] = Mechanical pressure analysis (CARVER press, XRD); settings: approximately 15,000 psi for approximately 20 seconds
Experimental: Batches of 3-phenyl-5-(thiophen-2-yl)-1,2,4-oxadiazole polymorphic Forms I and II were placed in a CARVER press and compressed at approximately 15,000 psi for approximately 20 seconds in two separate experiments. XRD analysis was performed on the samples. The resulting XRD pattern matched the starting material in both experiments, as shown in FIGS. 5A and 5B for Forms I and II, respectively. […] The Form II used in this experiment was obtained by recrystallization from the melt of Form I, as described in Example 14, above.

| form resulting from slurry experiments (summary) ([1]; approximately 12 days of slurring) | polymorphic transformation on grinding [2] | form resulting from slurry experiments (summary) ([1]; approximately 7 days of slurring) | storage stability (XRD) ([3]; scintillation vial in a hood, ambient conditions, approximately 6 days) | SMILES | storage stability / hydrate formation (XRD) ([3]; 75 and 84% RH, ambient temperature, 4 weeks, open Petri dishes) | change of polymorphic form under pressure [4] |
| --- | --- | --- | --- | --- | --- | --- |
| Form I | no transformation | – | – | c1ccc(-c2noc(-c3cccs3)n2)cc1 [Form I, 3-phenyl-5-(thiophen-2-yl)-1,2,4-oxadiazole] | does not form a hydrate and appears to be thermodynamically stable over time at ambient conditions | did not reveal any changes in the polymorphic form |
| – | transformed to Form I | Form I | showed signs of transformation to Form I | c1ccc(-c2noc(-c3cccs3)n2)cc1 [Form II, 3-phenyl-5-(thiophen-2-yl)-1,2,4-oxadiazole] | – | did not reveal any changes in the polymorphic form |
